Patent US12642771B2, “Compositions comprising PGI2-receptor agonists and processes for the preparation thereof” (Arena Pharmaceuticals, Inc., priority 2017, dated 2026)

Legend:
[1] = Example 7A: open-label single-dose pharmacokinetic study, modified-release tablet vs immediate-release capsule, fasted healthy subjects; assay type: in vivo, human
Description: A. An open-label, fixed sequence, non-randomized study in two cohorts of healthy male and non-pregnant, non-lactating female subjects was conducted. Two cohorts with twelve subjects in each were enrolled to ensure data in ten evaluable subjects per cohort.
Each subject in Cohort 1 received each of the following regimens, in the fasted state, in a sequential manner over four treatment periods: • Regimen A (0.03 mg immediate-release Compound 1): 1×0.03 mg Compound 1 immediate-release capsule. • Regimen B (0.06 mg modified-release Compound 1): 1×0.06 mg Compound 1 modified-release tablet as disclosed herein. • Regimen C (0.12 mg modified-release Compound 1): 2×0.06 mg Compound 1 modified-release tablets as disclosed herein. • Regimen D (0.18 mg modified-release Compound 1) 3×0.06 mg Compound 1 modified-release tablets as disclosed herein.
Subjects received each regimen in the morning of Day 1, following an overnight fast of a minimum of 8 hours. PK samples were taken from subjects at 72 hours post-dose. There was a minimum washout period of 7 days between each administration of investigational medicinal product (IMP) (i.e., selexipag film-coated tablet(s), Compound 1 immediate-release capsule(s), and/or Compound 1 modified-release tablet(s)).
Venous blood samples were withdrawn at regular time intervals. Plasma concentration data for Compound 1 and the selexipag parent and active metabolite were analyzed using appropriate non-compartmental techniques to obtain estimates of one or more of the following parameters:
One or more of the above pharmacokinetic parameters were determined at one or more of the following time points: pre-dose and (referring to hours after administration): 0.5, 1, 1.5, 2, 3, 4, 5, 6, 8, 10, 12, 16, 20, 24, 36, 48, and 72 hours.

[2] = Example 8: 22-week randomized, double-blind, placebo-controlled study (PVR, 6MWD, plasma levels, adverse events); assay type: in vivo, human
Description: A 22-week randomized, double-blind, placebo-controlled study with a dose titration period of up to 9 weeks was conducted. Sixty-one patients were randomized 2:1 Compound 1 to placebo. Right Heart Catheterization (RHC) measurements were obtained prior to study Day 1 of the dose titration period and at Week 22. The following values were obtained and recorded: pulmonary artery pressure (PAP) (systolic, diastolic, and mean), heart rate (HR), right atrial pressure (RAP), pulmonary capillary wedge pressure (PCWP) right ventricular pressure (RVP) and cardiac output (CO), pulmonary vascular resistance (PVR), arterial and mixed venous oxygen saturation […] (if applicable). Systemic vascular resistance (SVR) was estimated from blood pressure measurements. The 6-minute walk test (6MWD) was conducted according to the modified guidelines issued by the American Thoracic Society. See Am J Respir Crit Care Med 166:111-117, 2002.
Primary efficacy endpoints for the study were: a) change from baseline in PVR after 22 weeks of treatment, and b) change from baseline in 6 MWD after 22 weeks of treatment.
Compound 1 was administered as a capsule in 0.01, 0.02, 0.03, 0.04, and 0.10 mg dose strengths. The formulation was supplied as a liquid-filled, size 4, hard-gelatin capsule containing Compound 1, polyoxyl 40 hydrogenated castor oil (Kolliphor® RH40) NF, butylated hydroxytoluene (BHT)NF, and colloidal silicon dioxide NF.
The starting dose of Compound 1 was 0.01 mg twice daily. The dose of Compound 1 was titrated according to patient tolerability. If the initial dose was tolerated (0.01 mg twice daily), then the dose was increased once a week in the following fashion: 0.02 mg twice daily, 0.03 mg twice daily, 0.04 mg twice daily, 0.06 mg twice daily, 0.08 mg, 0.1 mg twice daily, 0.2 mg twice daily and 0.3 mg twice daily. The dose was optionally escalated to a possible maximum total daily dose of 0.6 mg (0.3 mg twice daily), pending tolerability.

[3] = Plasma pharmacokinetics of Compound 1 stated in background and description (initial clinical studies); assay type: in vivo; settings: immediate-release capsule formulation
[4] = modified-release compared to immediate-release formulation
[5] = modified-release tablet (compared with immediate-release capsule)

- Relative bioavailability based on individual dose-adjusted Cmax ([1]; 0.06, 0.12 and 0.18 mg modified-release tablet vs immediate-release capsule): statistically significantly lower
- Relative bioavailability based on individual dose-adjusted ratios of AUC(0-last) ([1]; 0.06 and 0.12 mg modified-release tablet vs immediate-release capsule): statistically significantly lower
- Dose-adjusted peak plasma exposure (Cmax/D), geometric mean ratio [1, 4]: 28.7-41.2%
- Dose-adjusted total plasma exposure (AUC/D), geometric mean ratio [1, 4]: 63.3-97.9%
- Cmax [1, 5]: reduced the Cmax
- Tmax [1, 5]: increased Tmax
- Plasma concentrations at 24 hours post-dose ([1]; modified-release tablet compared to immediate release-formulation): higher
- Cmax and peak-trough fluctuation [3]: high Cmax and peak-trough fluctuation
SMILES: O=C(O)COC[C@H]1CC[C@H](COC(=O)N(c2ccccc2)c2ccc(Cl)cc2)CC1 [Compound 1, 2-(((1r,4r)-4-(((4-chlorophenyl)(phenyl)carbamoyloxy)methyl)cyclohexyl)methoxy)acetic acid]
- total plasma concentrations [1, 5]: substantially maintaining similar total plasma concentrations
- Systemic exposure (Cmax and AUC), dose proportionality ([1]; oral modified-release tablet formulation): increased in a slightly higher than dose-proportional manner
- Adverse events ([2]; 22-week study): consistent with other prostacyclin treatments
- 6-minute walk distance (6MWD) ([2]; after 22 weeks of treatment): numerical improvement
- change from baseline in pulmonary vascular resistance (PVR) compared to placebo ([2]; after 22 weeks of treatment, capsule twice daily, titrated up to 0.3 mg twice daily): statistically significant change from baseline
- mean pre-dose and 4-hours post-dose plasma levels ([2]; immediate-release capsule twice daily, titrated, patients): appear similar to those previously observed in healthy human subjects
- correlation of 4 hour post-dose plasma concentrations with percent change from baseline in PVR and 6MWD ([2]; in vivo): strong and positive correlation
